According to patent US20220117972A1, “USE OF PPAR-DELTA AGONISTS IN THE TREATMENT OF MITOCHONDRIAL MYOPATHY” (Reneo Pharmaceuticals, Inc., priority 2019, published 2022):

How the values were obtained:
[1] = target: T1, FXR (Homo sapiens, UniProt Q96RI1); assay: nuclear receptor FXR activity; format: cell-based
T1 sequence (Q96RI1 1-486): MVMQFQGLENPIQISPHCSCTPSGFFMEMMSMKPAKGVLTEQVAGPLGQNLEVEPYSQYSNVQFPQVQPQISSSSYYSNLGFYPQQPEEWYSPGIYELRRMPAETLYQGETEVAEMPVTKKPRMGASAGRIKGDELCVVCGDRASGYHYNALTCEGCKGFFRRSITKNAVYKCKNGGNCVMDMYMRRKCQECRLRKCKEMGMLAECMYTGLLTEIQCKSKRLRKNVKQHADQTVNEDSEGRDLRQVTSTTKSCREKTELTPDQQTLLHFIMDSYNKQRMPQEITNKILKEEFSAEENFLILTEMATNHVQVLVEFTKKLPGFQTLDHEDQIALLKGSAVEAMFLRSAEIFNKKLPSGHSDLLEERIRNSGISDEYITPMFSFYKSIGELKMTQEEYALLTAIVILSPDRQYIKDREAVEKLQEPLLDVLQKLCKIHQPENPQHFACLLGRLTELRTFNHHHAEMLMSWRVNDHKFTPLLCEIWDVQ

[2] = target: T2, PPARα (Mus musculus, UniProt P23204); assay: PPAR receptor transactivation assay, mouse PPARα; format: cell-based
T2 construct: expressed in transfected cells; host or cells: Jump-In GripTite HEK293
T2 sequence (P23204 239-466 limits assumed): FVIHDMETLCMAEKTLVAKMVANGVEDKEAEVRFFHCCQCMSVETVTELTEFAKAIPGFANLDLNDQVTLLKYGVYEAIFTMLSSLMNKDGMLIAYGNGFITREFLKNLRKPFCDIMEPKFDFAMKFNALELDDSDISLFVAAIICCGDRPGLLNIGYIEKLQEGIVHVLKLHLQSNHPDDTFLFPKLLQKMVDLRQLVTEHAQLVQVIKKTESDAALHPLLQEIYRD

activity on the nuclear receptor FXR [1]: did not show any
EC50 [2]: > 10000 nM
Compound: Cc1cc(OC/C=C(/c2ccc(F)cc2)c2ccc(C#CCN3CCOCC3)cc2)ccc1OCC(=O)O [Compound 1, (E)-[4-[3-(4-Fluorophenyl)-3-[4-[3-(morpholin-4-yl)propynyl]phenyl]allyloxy]-2-methyl-phenoxy]acetic acid]
